pIC50: −log10 of the molar value.

The values that follow come from ChEMBL document CHEMBL1777737, “Solid phase synthesis of tariquidar-related modulators of ABC transporters preferring breast cancer resistance protein (ABCG2)” (Bioorg Med Chem Lett, 2011).

ATP-dependent translocase ABCB1, sequence (P08183 whole entry): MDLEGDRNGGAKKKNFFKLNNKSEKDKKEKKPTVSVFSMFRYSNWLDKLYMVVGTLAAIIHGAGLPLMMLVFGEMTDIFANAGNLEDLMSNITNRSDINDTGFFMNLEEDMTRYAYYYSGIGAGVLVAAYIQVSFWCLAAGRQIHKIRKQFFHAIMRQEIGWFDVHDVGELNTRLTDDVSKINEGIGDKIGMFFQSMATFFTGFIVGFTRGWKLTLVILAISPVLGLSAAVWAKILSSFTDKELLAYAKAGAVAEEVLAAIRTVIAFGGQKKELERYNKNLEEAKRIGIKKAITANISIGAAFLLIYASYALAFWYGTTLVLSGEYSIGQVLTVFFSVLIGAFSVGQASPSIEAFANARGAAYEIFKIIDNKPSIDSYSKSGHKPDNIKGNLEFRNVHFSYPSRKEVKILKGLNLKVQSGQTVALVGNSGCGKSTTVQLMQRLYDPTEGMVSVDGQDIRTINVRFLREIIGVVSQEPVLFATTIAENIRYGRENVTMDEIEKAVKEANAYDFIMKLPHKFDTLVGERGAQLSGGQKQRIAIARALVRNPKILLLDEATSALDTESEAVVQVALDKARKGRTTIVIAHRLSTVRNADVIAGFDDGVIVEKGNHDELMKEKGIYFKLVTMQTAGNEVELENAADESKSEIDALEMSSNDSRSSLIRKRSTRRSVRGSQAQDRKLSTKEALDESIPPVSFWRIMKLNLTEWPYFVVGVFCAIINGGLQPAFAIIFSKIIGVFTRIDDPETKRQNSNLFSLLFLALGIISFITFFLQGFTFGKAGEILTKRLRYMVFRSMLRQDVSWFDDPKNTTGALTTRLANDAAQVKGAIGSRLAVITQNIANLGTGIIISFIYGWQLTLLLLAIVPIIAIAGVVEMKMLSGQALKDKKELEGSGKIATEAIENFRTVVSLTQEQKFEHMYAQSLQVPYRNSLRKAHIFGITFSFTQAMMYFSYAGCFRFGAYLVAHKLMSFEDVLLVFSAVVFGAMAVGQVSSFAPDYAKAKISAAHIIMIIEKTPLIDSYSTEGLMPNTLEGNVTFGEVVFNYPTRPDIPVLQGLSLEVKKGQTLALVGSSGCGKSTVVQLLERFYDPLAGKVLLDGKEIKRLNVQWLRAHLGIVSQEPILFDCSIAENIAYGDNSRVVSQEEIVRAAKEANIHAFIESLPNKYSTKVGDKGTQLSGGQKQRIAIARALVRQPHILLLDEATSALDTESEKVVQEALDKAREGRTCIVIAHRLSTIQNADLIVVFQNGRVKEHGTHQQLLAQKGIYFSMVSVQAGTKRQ

One series deals with T1, Broad substrate specificity ATP-binding cassette transporter ABCG2 (Homo sapiens, UniProt Q9UNQ0).
T1 sequence (Q9UNQ0 whole entry): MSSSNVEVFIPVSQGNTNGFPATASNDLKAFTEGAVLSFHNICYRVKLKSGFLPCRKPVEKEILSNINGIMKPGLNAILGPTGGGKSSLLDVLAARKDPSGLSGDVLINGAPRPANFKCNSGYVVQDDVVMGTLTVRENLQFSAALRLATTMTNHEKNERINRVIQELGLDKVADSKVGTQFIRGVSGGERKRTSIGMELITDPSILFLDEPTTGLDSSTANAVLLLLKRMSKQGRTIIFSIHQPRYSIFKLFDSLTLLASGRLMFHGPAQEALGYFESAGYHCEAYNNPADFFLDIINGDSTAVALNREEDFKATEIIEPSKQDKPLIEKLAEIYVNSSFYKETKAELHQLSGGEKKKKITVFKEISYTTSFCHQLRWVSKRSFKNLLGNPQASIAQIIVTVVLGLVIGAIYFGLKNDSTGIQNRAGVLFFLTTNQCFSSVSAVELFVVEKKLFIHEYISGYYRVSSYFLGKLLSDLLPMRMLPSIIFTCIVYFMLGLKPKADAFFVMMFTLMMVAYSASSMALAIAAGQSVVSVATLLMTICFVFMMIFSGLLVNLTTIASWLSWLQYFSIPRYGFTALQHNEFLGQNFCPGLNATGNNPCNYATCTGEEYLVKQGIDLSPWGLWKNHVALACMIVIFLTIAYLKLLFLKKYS
The series is described as follows: Inhibition of ABCG2 expressed in human MCF7/Topo cells by Hoechst microplate assay. The series is classed as cell-based.
Conditions: not given
As for `COCCOCCOCCOc1cc2c(cc1OC)CCN(CCc1ccc(NC(=O)c3ccc(C(=O)O)c(NC(=O)c4ccc5ccccc5n4)c3)cc1)C2`, the pIC50 – broadly, −log10 of the IC50, conventionally taken in molar units – is 5.21.

Molecule `COCCOCCOCCOc1cc2c(cc1OC)CCN(CCc1ccc(NC(=O)c3ccc(C(=O)OC)c(NC(=O)c4ccc5ccccc5n4)c3)cc1)C2` gave a pIC50 of 6.89.

`COC(=O)c1ccc(C(=O)Nc2ccc(CCN3CCc4cc(OC)c(OC)cc4C3)cc2)cc1NC(=O)c1ccc2ncccc2c1` gave a negative-log IC50 (pIC50) of 6.76.

`COC(=O)c1ccc(C(=O)Nc2ccc(CCN3CCc4cc(OC)c(OC)cc4C3)cc2)cc1NC(=O)c1ccc2ccccc2n1`: the negative logarithm of the IC50 (pIC50) was 7.23.

Consider `COCCOCCOCCOc1cc2c(cc1OC)CN(CCc1ccc(NC(=O)c3ccc(C(=O)O)c(NC(=O)c4ccc5ccccc5n4)c3)cc1)CC2`, for which the pIC50 is below 4.30.

On to `COCCOCCOCCOc1cc2c(cc1OC)CCN(CCc1ccc(NC(=O)c3ccc(C(=O)OC)c(NC(=O)c4ccc5ncccc5c4)c3)cc1)C2`, for which the pIC50 is 6.29.

Turning to `COCCOCCOCCOc1cc2c(cc1OC)CN(CCc1ccc(NC(=O)c3ccc(C(=O)O)c(NC(=O)c4ccc5ncccc5c4)c3)cc1)CC2`, the pIC50 was below 4.30.

`COCCOCCOCCOc1cc2c(cc1OC)CCN(CCc1ccc(NC(=O)c3ccc(C(=O)O)c(NC(=O)c4ccc5ncccc5c4)c3)cc1)C2`: the negative-log IC50 (pIC50) is below 4.30.

Regarding `COCCOCCOCCOc1cc2c(cc1OC)CN(CCc1ccc(NC(=O)c3ccc(C(=O)OC)c(NC(=O)c4ccc5ncccc5c4)c3)cc1)CC2`, the pIC50 was 6.41.

Regarding `COCCOCCOCCOc1cc2c(cc1OC)CN(CCc1ccc(NC(=O)c3ccc(C(=O)OC)c(NC(=O)c4ccc5ccccc5n4)c3)cc1)CC2`, the pIC50 is 6.74.

Molecule `COc1cc2c(cc1OC)CN(CCc1ccc(NC(=O)c3ccc(C(=O)O)c(NC(=O)c4ccc5ncccc5c4)c3)cc1)CC2` gave a pIC50 below 4.00.

With `COc1cc2c(cc1OC)CN(CCc1ccc(NC(=O)c3ccc(C(=O)O)c(NC(=O)c4ccc5ccccc5n4)c3)cc1)CC2`, the pIC50 was below 5.30.

Another series concerns the target ATP-dependent translocase ABCB1 (Homo sapiens, UniProt P08183). Kind of series: Inhibition of ABCB1 expressed in Kb-V1 cells after 10 mins by calcein-AM assay.
Conditions: not given
It counts as cell-based.
As for `COCCOCCOCCOc1cc2c(cc1OC)CCN(CCc1ccc(NC(=O)c3ccc(C(=O)O)c(NC(=O)c4ccc5ccccc5n4)c3)cc1)C2`, the pIC50 is below 4.00.

In the case of `COCCOCCOCCOc1cc2c(cc1OC)CCN(CCc1ccc(NC(=O)c3ccc(C(=O)OC)c(NC(=O)c4ccc5ccccc5n4)c3)cc1)C2`, the pIC50 was below 4.30.

For the molecule `COC(=O)c1ccc(C(=O)Nc2ccc(CCN3CCc4cc(OC)c(OC)cc4C3)cc2)cc1NC(=O)c1ccc2ncccc2c1`, the negative-log IC50 (pIC50) is below 5.00.

In the case of `COC(=O)c1ccc(C(=O)Nc2ccc(CCN3CCc4cc(OC)c(OC)cc4C3)cc2)cc1NC(=O)c1ccc2ccccc2n1`, the pIC50 is below 4.54.

Take `COCCOCCOCCOc1cc2c(cc1OC)CN(CCc1ccc(NC(=O)c3ccc(C(=O)O)c(NC(=O)c4ccc5ccccc5n4)c3)cc1)CC2`: the negative-log IC50 (pIC50) is below 4.00.

For the molecule `COCCOCCOCCOc1cc2c(cc1OC)CCN(CCc1ccc(NC(=O)c3ccc(C(=O)OC)c(NC(=O)c4ccc5ncccc5c4)c3)cc1)C2`, the pIC50 was below 4.30.

For `COCCOCCOCCOc1cc2c(cc1OC)CN(CCc1ccc(NC(=O)c3ccc(C(=O)O)c(NC(=O)c4ccc5ncccc5c4)c3)cc1)CC2`, the pIC50 is below 4.30.

For the molecule `COCCOCCOCCOc1cc2c(cc1OC)CCN(CCc1ccc(NC(=O)c3ccc(C(=O)O)c(NC(=O)c4ccc5ncccc5c4)c3)cc1)C2`, the negative logarithm of the IC50 (pIC50) is below 4.30.

Turning to `COCCOCCOCCOc1cc2c(cc1OC)CN(CCc1ccc(NC(=O)c3ccc(C(=O)OC)c(NC(=O)c4ccc5ncccc5c4)c3)cc1)CC2`, the pIC50 is below 4.00.

On to `COCCOCCOCCOc1cc2c(cc1OC)CN(CCc1ccc(NC(=O)c3ccc(C(=O)OC)c(NC(=O)c4ccc5ccccc5n4)c3)cc1)CC2`, for which the pIC50 was below 4.30.

As for `COc1cc2c(cc1OC)CN(CCc1ccc(NC(=O)c3ccc(C(=O)O)c(NC(=O)c4ccc5ncccc5c4)c3)cc1)CC2`, the negative logarithm of the IC50 (pIC50) was below 6.00.

For the molecule `COc1cc2c(cc1OC)CN(CCc1ccc(NC(=O)c3ccc(C(=O)O)c(NC(=O)c4ccc5ccccc5n4)c3)cc1)CC2`, the pIC50 was below 4.30.

Another series concerns the target T2, ABCG2 (Homo sapiens, UniProt Q9UNQ0).
T2 sequence (Q9UNQ0 whole entry): T1 sequence (Q9UNQ0 whole entry)
The series is described as follows: Inhibition of ABCG2 expressed in human MCF7/Topo cells assessed as maximal inhibitory effect at IC50 concentration by Hoechst microplate assay. Conditions: MCF7/Topo cells expressing ABCG2, probe Hoechst dye, read-out: INH. The series is classed as cell-based.
Consider `COC(=O)c1ccc(C(=O)Nc2ccc(CCN3CCc4cc(OC)c(OC)cc4C3)cc2)cc1NC(=O)c1ccc2ncccc2c1`, for which the Emax was 55%.

Turning to `COCCOCCOCCOc1cc2c(cc1OC)CCN(CCc1ccc(NC(=O)c3ccc(C(=O)OC)c(NC(=O)c4ccc5ncccc5c4)c3)cc1)C2`, the Emax is 61%.

`COCCOCCOCCOc1cc2c(cc1OC)CN(CCc1ccc(NC(=O)c3ccc(C(=O)OC)c(NC(=O)c4ccc5ncccc5c4)c3)cc1)CC2`: the Emax was 41%.
